Experimental data from the supplement of paper PMC5908809.

What was measured:
[1] = system: normal NK cells expanded with K562-aAPC; test: percent inhibition of viability; higher = more inhibition; conditions: 72 h, IL-2 2.5 ng/mL
Procedure: (§1)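 Drug sensitivity and resistance testing on K562-aAPC-expanded normal NK cells: 5 concentrations (10-fold steps over a 10,000-fold range), 72 h at 37 °C, viability by CellTiter-Glo normalised to DMSO and benzethonium chloride controls; DSS from the fitted curve.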

[2] = system: DERL-7 (IL-2 2.5 ng/mL); test: as above; conditions: 72 h
[3] = system: IMC-1 (IL-2 20 ng/mL); test: as above; conditions: 72 h
[4] = system: KAI3 (IL-2 2.5 ng/mL); test: as above; conditions: 72 h
[5] = system: KHYG-1 (IL-2 2.5 ng/mL); test: as above; conditions: 72 h
[6] = system: NK-92 (IL-2 2.5 ng/mL); test: as above; conditions: 72 h
[7] = system: NK-YS (IL-2 2.5 ng/mL); test: as above; conditions: 72 h
[8] = system: NKL (IL-2 2.5 ng/mL); test: as above; conditions: 72 h
[9] = system: SNK-6 (IL-2 2.5 ng/mL); test: as above; conditions: 72 h
[10] = system: YT (IL-2 2.5 ng/mL); test: as above; conditions: 72 h
[11] = system: normal primary NK cells, pool 1 (3 donors) (IL-2 2.5 ng/mL); test: as above; conditions: 72 h
[12] = system: normal primary NK cells, pool 1 (3 donors), resting (IL-2 0 ng/mL); test: as above; conditions: 72 h
[13] = system: normal primary NK cells, pool 2 (3 donors) (IL-2 2.5 ng/mL); test: as above; conditions: 72 h
[14] = system: normal primary NK cells, pool 3 (3 donors) (IL-2 2.5 ng/mL); test: as above; conditions: 72 h
[15] = system: normal NK cells expanded with K562-aAPC; test: drug sensitivity score (DSS) (DSS units); higher = more sensitive; extreme values may be limits of the assay; conditions: 72 h; IL-2 2.5 ng/mL
Procedure: as §1

[16] = system: DERL-7 (IL-2 2.5 ng/mL); test: as above; conditions: 72 h
[17] = system: IMC-1 (IL-2 20 ng/mL); test: as above; conditions: 72 h
[18] = system: KAI3 (IL-2 2.5 ng/mL); test: as above; conditions: 72 h
[19] = system: KHYG-1 (IL-2 2.5 ng/mL); test: as above; conditions: 72 h
[20] = system: NK-92 (IL-2 2.5 ng/mL); test: as above; conditions: 72 h
[21] = system: NK-YS (IL-2 2.5 ng/mL); test: as above; conditions: 72 h
[22] = system: NKL (IL-2 2.5 ng/mL); test: as above; conditions: 72 h
[23] = system: SNK-6 (IL-2 2.5 ng/mL); test: as above; conditions: 72 h
[24] = system: YT (IL-2 2.5 ng/mL); test: as above; conditions: 72 h
[25] = system: normal primary NK cells, pool 1 (3 donors) (IL-2 2.5 ng/mL); test: as above; conditions: 72 h
[26] = system: normal primary NK cells, pool 1 (3 donors), resting (IL-2 0 ng/mL); test: as above; conditions: 72 h
[27] = system: normal primary NK cells, pool 2 (3 donors) (IL-2 2.5 ng/mL); test: as above; conditions: 72 h
[28] = system: normal primary NK cells, pool 3 (3 donors) (IL-2 2.5 ng/mL); test: as above; conditions: 72 h

## O=C(Nc1cccc(C(F)(F)F)c1)Nc1cc(S(=O)(=O)NC2CC2)ccc1-c1ccsc1 [AGI-6780] (max concentration tested 10000 nM)
[1]; 1 nM
  percent inhibition of viability: -7.15%
[1]; 10 nM
  percent inhibition of viability: -5.5%
[1]; 100 nM
  percent inhibition of viability: -5.48%
[1]; 1000 nM
  percent inhibition of viability: -5.66%
[1]; 10000 nM
  percent inhibition of viability: 6.74%
[2]; 1 nM
  percent inhibition of viability: 2.8%
[2]; 10 nM
  percent inhibition of viability: 2.88%
[2]; 100 nM
  percent inhibition of viability: 5.06%
[2]; 1000 nM
  percent inhibition of viability: 7.2%
[2]; 10000 nM
  percent inhibition of viability: 42.2%
[3]; 1 nM
  percent inhibition of viability: -3.83%
[3]; 10 nM
  percent inhibition of viability: -6.4%
[3]; 100 nM
  percent inhibition of viability: -1.13%
[3]; 1000 nM
  percent inhibition of viability: -1.96%
[3]; 10000 nM
  percent inhibition of viability: 12.3%
[4]; 1 nM
  percent inhibition of viability: 7.81%
[4]; 10 nM
  percent inhibition of viability: -7.37%
[4]; 100 nM
  percent inhibition of viability: -5.02%
[4]; 1000 nM
  percent inhibition of viability: -1.47%
[4]; 10000 nM
  percent inhibition of viability: 24.4%
[5]; 1 nM
  percent inhibition of viability: 0.2%
[5]; 10 nM
  percent inhibition of viability: -3.96%
[5]; 100 nM
  percent inhibition of viability: -1.95%
[5]; 1000 nM
  percent inhibition of viability: 2.69%
[5]; 10000 nM
  percent inhibition of viability: 43.5%
[6]; 1 nM
  percent inhibition of viability: -7.9%
[6]; 10 nM
  percent inhibition of viability: -10.9%
[6]; 100 nM
  percent inhibition of viability: -5.67%
[6]; 1000 nM
  percent inhibition of viability: 20.1%
[6]; 10000 nM
  percent inhibition of viability: 65.8%
[7]; 1 nM
  percent inhibition of viability: -0.22%
[7]; 10 nM
  percent inhibition of viability: 0.5%
[7]; 100 nM
  percent inhibition of viability: -0.98%
[7]; 1000 nM
  percent inhibition of viability: 2.65%
[7]; 10000 nM
  percent inhibition of viability: 23.1%
[8]; 1 nM
  percent inhibition of viability: -8.69%
[8]; 10 nM
  percent inhibition of viability: -12.6%
[8]; 100 nM
  percent inhibition of viability: -8.03%
[8]; 1000 nM
  percent inhibition of viability: -5.7%
[8]; 10000 nM
  percent inhibition of viability: 20.2%
[9]; 1 nM
  percent inhibition of viability: -7.22%
[9]; 10 nM
  percent inhibition of viability: 11.7%
[9]; 100 nM
  percent inhibition of viability: 2.33%
[9]; 1000 nM
  percent inhibition of viability: 11.1%
[9]; 10000 nM
  percent inhibition of viability: 32.3%
[10]; 1 nM
  percent inhibition of viability: -2.18%
[10]; 10 nM
  percent inhibition of viability: -6.24%
[10]; 100 nM
  percent inhibition of viability: -5.3%
[10]; 1000 nM
  percent inhibition of viability: 5.28%
[10]; 10000 nM
  percent inhibition of viability: 46.9%
[11]; 1 nM
  percent inhibition of viability: -6.68%
[11]; 10 nM
  percent inhibition of viability: -2.93%
[11]; 100 nM
  percent inhibition of viability: 8.08%
[11]; 1000 nM
  percent inhibition of viability: 7.42%
[11]; 10000 nM
  percent inhibition of viability: 23.6%
[12]; 1 nM
  percent inhibition of viability: 2.29%
[12]; 10 nM
  percent inhibition of viability: 1.29%
[12]; 100 nM
  percent inhibition of viability: 13%
[12]; 1000 nM
  percent inhibition of viability: 17.2%
[12]; 10000 nM
  percent inhibition of viability: 44.5%
[13]; 1 nM
  percent inhibition of viability: -16%
[13]; 10 nM
  percent inhibition of viability: -3.85%
[13]; 100 nM
  percent inhibition of viability: -3.48%
[13]; 1000 nM
  percent inhibition of viability: 9.29%
[13]; 10000 nM
  percent inhibition of viability: 20.2%
[14]; 1 nM
  percent inhibition of viability: -11.5%
[14]; 10 nM
  percent inhibition of viability: -1.88%
[14]; 100 nM
  percent inhibition of viability: -0.35%
[14]; 1000 nM
  percent inhibition of viability: 8.79%
[14]; 10000 nM
  percent inhibition of viability: 8.51%
[15]
  drug sensitivity score: 0
[16]
  drug sensitivity score: 3.34
[17]
  drug sensitivity score: 0.03
[18]
  drug sensitivity score: 0.81
[19]
  drug sensitivity score: 2.61
[20]
  drug sensitivity score: 6.57
[21]
  drug sensitivity score: 1.21
[22]
  drug sensitivity score: 0.4
[23]
  drug sensitivity score: 2.72
[24]
  drug sensitivity score: 3.31
[25]
  drug sensitivity score: 1.25
[26]
  drug sensitivity score: 4.5
[27]
  drug sensitivity score: 1.59
[28]
  drug sensitivity score: 0

## O=C(Cc1ccc(-c2ccc(OCCN3CCOCC3)cc2)cn1)NCc1ccccc1 [KX2-391] (max concentration tested 10000 nM)
[1]; 1 nM
  percent inhibition of viability: -2.89%
[1]; 10 nM
  percent inhibition of viability: -0.99%
[1]; 100 nM
  percent inhibition of viability: 57%
[1]; 1000 nM
  percent inhibition of viability: 55.9%
[1]; 10000 nM
  percent inhibition of viability: 57.5%
[2]; 1 nM
  percent inhibition of viability: -1.42%
[2]; 10 nM
  percent inhibition of viability: 5.02%
[2]; 100 nM
  percent inhibition of viability: 99.3%
[2]; 1000 nM
  percent inhibition of viability: 99.9%
[2]; 10000 nM
  percent inhibition of viability: 98.9%
[3]; 1 nM
  percent inhibition of viability: -2.07%
[3]; 10 nM
  percent inhibition of viability: -3.69%
[3]; 100 nM
  percent inhibition of viability: 99.1%
[3]; 1000 nM
  percent inhibition of viability: 100%
[3]; 10000 nM
  percent inhibition of viability: 100%
[4]; 1 nM
  percent inhibition of viability: -3.67%
[4]; 10 nM
  percent inhibition of viability: 25.5%
[4]; 100 nM
  percent inhibition of viability: 55.4%
[4]; 1000 nM
  percent inhibition of viability: 76.7%
[4]; 10000 nM
  percent inhibition of viability: 70.3%
[5]; 1 nM
  percent inhibition of viability: -5.79%
[5]; 10 nM
  percent inhibition of viability: 3.13%
[5]; 100 nM
  percent inhibition of viability: 98.5%
[5]; 1000 nM
  percent inhibition of viability: 107%
[5]; 10000 nM
  percent inhibition of viability: 98.1%
[6]; 1 nM
  percent inhibition of viability: 2.97%
[6]; 10 nM
  percent inhibition of viability: 44%
[6]; 100 nM
  percent inhibition of viability: 92.2%
[6]; 1000 nM
  percent inhibition of viability: 104%
[6]; 10000 nM
  percent inhibition of viability: 96.8%
[7]; 1 nM
  percent inhibition of viability: -1.95%
[7]; 10 nM
  percent inhibition of viability: 18.5%
[7]; 100 nM
  percent inhibition of viability: 69.3%
[7]; 1000 nM
  percent inhibition of viability: 80.8%
[7]; 10000 nM
  percent inhibition of viability: 81.6%
[8]; 1 nM
  percent inhibition of viability: -12.7%
[8]; 10 nM
  percent inhibition of viability: 5.97%
[8]; 100 nM
  percent inhibition of viability: 94.5%
[8]; 1000 nM
  percent inhibition of viability: 96.4%
[8]; 10000 nM
  percent inhibition of viability: 89%
[9]; 1 nM
  percent inhibition of viability: 27.9%
[9]; 10 nM
  percent inhibition of viability: 54%
[9]; 100 nM
  percent inhibition of viability: 79.7%
[9]; 1000 nM
  percent inhibition of viability: 91.6%
[9]; 10000 nM
  percent inhibition of viability: 95.2%
[10]; 1 nM
  percent inhibition of viability: -2.25%
[10]; 10 nM
  percent inhibition of viability: 14.7%
[10]; 100 nM
  percent inhibition of viability: 95.6%
[10]; 1000 nM
  percent inhibition of viability: 102%
[10]; 10000 nM
  percent inhibition of viability: 95.2%
[11]; 1 nM
  percent inhibition of viability: -14.5%
[11]; 10 nM
  percent inhibition of viability: -16.4%
[11]; 100 nM
  percent inhibition of viability: 1.64%
[11]; 1000 nM
  percent inhibition of viability: 8.22%
[11]; 10000 nM
  percent inhibition of viability: 36.6%
[12]; 1 nM
  percent inhibition of viability: -13.2%
[12]; 10 nM
  percent inhibition of viability: -19.8%
[12]; 100 nM
  percent inhibition of viability: 7.03%
[12]; 1000 nM
  percent inhibition of viability: 7.66%
[12]; 10000 nM
  percent inhibition of viability: 29.1%
[13]; 1 nM
  percent inhibition of viability: -6.2%
[13]; 10 nM
  percent inhibition of viability: -11.1%
[13]; 100 nM
  percent inhibition of viability: -5.76%
[13]; 1000 nM
  percent inhibition of viability: 6.08%
[13]; 10000 nM
  percent inhibition of viability: 22.6%
[14]; 1 nM
  percent inhibition of viability: -15.5%
[14]; 10 nM
  percent inhibition of viability: -9.53%
[14]; 100 nM
  percent inhibition of viability: -0.96%
[14]; 1000 nM
  percent inhibition of viability: 0.59%
[14]; 10000 nM
  percent inhibition of viability: 6.59%
[15]
  drug sensitivity score: 17.9
[16]
  drug sensitivity score: 31.1
[17]
  drug sensitivity score: 30
[18]
  drug sensitivity score: 23
[19]
  drug sensitivity score: 30.7
[20]
  drug sensitivity score: 34.8
[21]
  drug sensitivity score: 25.4
[22]
  drug sensitivity score: 30.1
[23]
  drug sensitivity score: 34.7
[24]
  drug sensitivity score: 32
[25]
  drug sensitivity score: 3.06
[26]
  drug sensitivity score: 2.04
[27]
  drug sensitivity score: 1.59
[28]
  drug sensitivity score: 0
